Results: publication PMC9492542, “Brain-restricted mTOR inhibition with binary pharmacology” (Nature, 2022)
Read-outs that look alike come from different tables or passages of the source.

Experiments:
[1] = biological target: 476 purified kinases (Homo sapiens, UniProt Q9H093)
[2] = biological target: T1, 476 purified kinases (Homo sapiens, UniProt P52564); settings: for MAP2K6 (MKK6) (kinase profiling): ZLYTE
T1 sequence (P52564 1-334): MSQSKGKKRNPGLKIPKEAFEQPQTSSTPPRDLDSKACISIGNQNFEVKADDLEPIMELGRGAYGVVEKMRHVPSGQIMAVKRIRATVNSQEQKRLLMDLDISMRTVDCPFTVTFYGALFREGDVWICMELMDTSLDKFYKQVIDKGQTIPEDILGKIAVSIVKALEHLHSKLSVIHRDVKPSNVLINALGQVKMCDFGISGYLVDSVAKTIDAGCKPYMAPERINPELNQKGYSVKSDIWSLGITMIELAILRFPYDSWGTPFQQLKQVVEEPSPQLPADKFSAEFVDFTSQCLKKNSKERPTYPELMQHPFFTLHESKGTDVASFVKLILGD

[3] = biological target: 476 purified kinases (Homo sapiens, UniProt Q13237); settings: ZLYTE
[4] = biological target: 476 purified kinases (Homo sapiens, UniProt Q99755)
[5] = biological target: 476 purified kinases (Homo sapiens, UniProt Q00537); settings: ZLYTE
[6] = biological target: 476 purified kinases (Homo sapiens, UniProt P06241); settings: ZLYTE
[7] = biological target: 476 purified kinases (Homo sapiens, UniProt P14616); settings: ZLYTE
[8] = biological target: 476 purified kinases (Homo sapiens, UniProt Q56UN5); settings: ZLYTE
[9] = biological target: 476 purified kinases (Homo sapiens, UniProt P23443); settings: ZLYTE
[10] = biological target: 476 purified kinases (Homo sapiens, UniProt P51957); settings: ZLYTE
[11] = biological target: 476 purified kinases (Homo sapiens, UniProt Q32MK0)
[12] = biological target: 476 purified kinases (Homo sapiens, UniProt Q8IY84); settings: ZLYTE
[13] = biological target: 476 purified kinases (Homo sapiens, UniProt Q92630)
[14] = biological target: 476 purified kinases (Homo sapiens, UniProt Q7L7X3)
[15] = biological target: 476 purified kinases (Homo sapiens, UniProt Q86Z02); settings: ZLYTE; 10 nM
[16] = biological target: 476 purified kinases (Homo sapiens, UniProt Q9H2X6); settings: ZLYTE
[17] = biological target: 476 purified kinases (Homo sapiens, UniProt Q9UEE5)
[18] = biological target: 476 purified kinases (Homo sapiens, UniProt O75385)
[19] = biological target: 476 purified kinases (Homo sapiens, UniProt Q00534); settings: Adapta
[20] = biological target: 476 purified kinases (Homo sapiens, UniProt P37023)
[21] = biological target: 476 purified kinases (Homo sapiens, UniProt P45985)
[22] = biological target: 476 purified kinases (Homo sapiens, UniProt Q9UBE8)
[23] = biological target: 476 purified kinases (Homo sapiens, UniProt Q9UKI8)
[24] = biological target: 476 purified kinases (Homo sapiens, UniProt P06493); settings: ZLYTE
[25] = biological target: 476 purified kinases (Homo sapiens, UniProt Q13873)
[26] = biological target: 476 purified kinases (Homo sapiens, UniProt Q16513)
[27] = biological target: 476 purified kinases (Homo sapiens, UniProt Q13470); settings: ZLYTE
[28] = biological target: 476 purified kinases (Homo sapiens, UniProt Q8N4C8); settings: ZLYTE
[29] = biological target: 476 purified kinases (Homo sapiens, UniProt Q8N568); settings: ZLYTE
[30] = biological target: 476 purified kinases (Homo sapiens, UniProt Q99759)
[31] = biological target: 476 purified kinases (Homo sapiens, UniProt Q9NY57)
[32] = biological target: 476 purified kinases (Homo sapiens, UniProt O00141); settings: ZLYTE
476 purified kinases (Homo sapiens, UniProt O00141), sequence (O00141 whole entry): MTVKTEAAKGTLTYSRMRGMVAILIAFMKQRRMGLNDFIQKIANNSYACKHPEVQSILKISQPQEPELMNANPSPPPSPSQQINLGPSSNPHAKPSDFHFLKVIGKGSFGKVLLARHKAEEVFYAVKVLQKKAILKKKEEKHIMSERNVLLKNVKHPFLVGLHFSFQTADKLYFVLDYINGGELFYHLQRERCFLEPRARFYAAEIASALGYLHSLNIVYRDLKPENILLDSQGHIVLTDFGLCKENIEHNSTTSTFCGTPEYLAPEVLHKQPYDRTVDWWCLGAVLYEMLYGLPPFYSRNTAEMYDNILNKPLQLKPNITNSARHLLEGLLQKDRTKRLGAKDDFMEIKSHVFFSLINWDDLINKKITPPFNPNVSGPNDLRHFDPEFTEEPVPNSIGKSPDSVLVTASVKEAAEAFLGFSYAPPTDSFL

476 purified kinases (Homo sapiens, UniProt Q9H2X6), sequence (Q9H2X6 whole entry): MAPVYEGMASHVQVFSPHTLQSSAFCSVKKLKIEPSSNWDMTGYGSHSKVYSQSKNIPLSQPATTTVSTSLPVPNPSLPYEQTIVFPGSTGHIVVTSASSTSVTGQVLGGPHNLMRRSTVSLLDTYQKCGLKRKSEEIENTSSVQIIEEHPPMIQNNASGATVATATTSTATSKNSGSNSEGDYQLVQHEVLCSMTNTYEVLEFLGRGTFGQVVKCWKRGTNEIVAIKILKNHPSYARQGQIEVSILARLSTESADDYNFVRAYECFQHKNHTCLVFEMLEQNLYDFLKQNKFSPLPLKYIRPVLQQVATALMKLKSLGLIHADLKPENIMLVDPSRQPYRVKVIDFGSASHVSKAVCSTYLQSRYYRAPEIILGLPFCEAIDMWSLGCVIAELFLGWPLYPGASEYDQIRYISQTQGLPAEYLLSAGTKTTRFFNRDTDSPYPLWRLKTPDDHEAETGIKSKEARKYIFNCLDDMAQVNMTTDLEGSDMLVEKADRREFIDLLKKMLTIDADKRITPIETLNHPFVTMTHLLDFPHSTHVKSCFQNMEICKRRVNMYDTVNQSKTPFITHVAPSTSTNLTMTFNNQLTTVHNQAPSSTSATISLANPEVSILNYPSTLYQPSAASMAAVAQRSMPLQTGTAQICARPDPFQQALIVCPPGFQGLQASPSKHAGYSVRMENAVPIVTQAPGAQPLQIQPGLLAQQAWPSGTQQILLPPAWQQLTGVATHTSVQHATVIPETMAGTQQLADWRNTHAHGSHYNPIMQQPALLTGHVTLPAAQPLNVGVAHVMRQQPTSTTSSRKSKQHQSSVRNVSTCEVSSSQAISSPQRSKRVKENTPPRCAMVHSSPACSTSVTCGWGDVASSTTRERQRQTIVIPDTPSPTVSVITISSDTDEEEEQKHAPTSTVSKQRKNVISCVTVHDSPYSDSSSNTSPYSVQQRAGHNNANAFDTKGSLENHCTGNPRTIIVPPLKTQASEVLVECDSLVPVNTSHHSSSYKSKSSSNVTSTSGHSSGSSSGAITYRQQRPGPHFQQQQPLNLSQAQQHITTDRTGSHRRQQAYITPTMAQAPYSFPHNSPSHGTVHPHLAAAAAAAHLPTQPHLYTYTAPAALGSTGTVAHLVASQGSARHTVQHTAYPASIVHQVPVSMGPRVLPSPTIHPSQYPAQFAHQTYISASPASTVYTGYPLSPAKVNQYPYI
476 purified kinases (Homo sapiens, UniProt Q9NY57), sequence (Q9NY57 whole entry): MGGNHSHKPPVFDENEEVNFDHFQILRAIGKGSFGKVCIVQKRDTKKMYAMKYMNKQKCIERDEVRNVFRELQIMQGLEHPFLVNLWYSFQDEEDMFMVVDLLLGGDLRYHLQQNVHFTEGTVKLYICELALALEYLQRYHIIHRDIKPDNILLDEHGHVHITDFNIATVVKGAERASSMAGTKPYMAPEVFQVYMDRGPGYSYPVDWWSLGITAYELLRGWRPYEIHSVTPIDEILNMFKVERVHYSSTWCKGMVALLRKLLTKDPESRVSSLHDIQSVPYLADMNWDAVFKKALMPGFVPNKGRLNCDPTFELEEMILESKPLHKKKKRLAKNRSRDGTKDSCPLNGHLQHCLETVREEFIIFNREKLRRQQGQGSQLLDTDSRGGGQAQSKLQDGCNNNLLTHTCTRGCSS
476 purified kinases (Homo sapiens, UniProt Q8IY84), sequence (Q8IY84 whole entry): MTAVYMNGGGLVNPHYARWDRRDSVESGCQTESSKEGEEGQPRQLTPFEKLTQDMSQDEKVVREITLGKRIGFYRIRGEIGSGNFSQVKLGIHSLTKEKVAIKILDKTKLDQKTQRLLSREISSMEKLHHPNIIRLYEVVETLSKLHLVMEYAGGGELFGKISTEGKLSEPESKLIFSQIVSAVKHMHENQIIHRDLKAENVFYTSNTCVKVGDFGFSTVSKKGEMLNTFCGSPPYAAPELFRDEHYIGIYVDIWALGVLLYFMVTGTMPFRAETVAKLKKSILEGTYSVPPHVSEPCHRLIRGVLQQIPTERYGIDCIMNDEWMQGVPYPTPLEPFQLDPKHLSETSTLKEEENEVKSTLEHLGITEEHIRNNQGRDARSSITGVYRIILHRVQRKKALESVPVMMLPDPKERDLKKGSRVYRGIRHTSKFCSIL
476 purified kinases (Homo sapiens, UniProt P45985), sequence (P45985 whole entry): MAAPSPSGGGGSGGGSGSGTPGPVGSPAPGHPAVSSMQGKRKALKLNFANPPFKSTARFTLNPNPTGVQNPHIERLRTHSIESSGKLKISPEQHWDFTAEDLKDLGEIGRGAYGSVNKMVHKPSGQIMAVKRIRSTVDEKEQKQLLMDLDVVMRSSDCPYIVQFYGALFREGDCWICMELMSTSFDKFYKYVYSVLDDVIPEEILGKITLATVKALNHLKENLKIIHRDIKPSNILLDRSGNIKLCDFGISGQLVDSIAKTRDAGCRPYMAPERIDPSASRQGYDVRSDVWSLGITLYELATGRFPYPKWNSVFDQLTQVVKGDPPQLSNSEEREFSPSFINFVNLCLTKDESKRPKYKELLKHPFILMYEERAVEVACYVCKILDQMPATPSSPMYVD
476 purified kinases (Homo sapiens, UniProt Q56UN5), sequence (Q56UN5 whole entry): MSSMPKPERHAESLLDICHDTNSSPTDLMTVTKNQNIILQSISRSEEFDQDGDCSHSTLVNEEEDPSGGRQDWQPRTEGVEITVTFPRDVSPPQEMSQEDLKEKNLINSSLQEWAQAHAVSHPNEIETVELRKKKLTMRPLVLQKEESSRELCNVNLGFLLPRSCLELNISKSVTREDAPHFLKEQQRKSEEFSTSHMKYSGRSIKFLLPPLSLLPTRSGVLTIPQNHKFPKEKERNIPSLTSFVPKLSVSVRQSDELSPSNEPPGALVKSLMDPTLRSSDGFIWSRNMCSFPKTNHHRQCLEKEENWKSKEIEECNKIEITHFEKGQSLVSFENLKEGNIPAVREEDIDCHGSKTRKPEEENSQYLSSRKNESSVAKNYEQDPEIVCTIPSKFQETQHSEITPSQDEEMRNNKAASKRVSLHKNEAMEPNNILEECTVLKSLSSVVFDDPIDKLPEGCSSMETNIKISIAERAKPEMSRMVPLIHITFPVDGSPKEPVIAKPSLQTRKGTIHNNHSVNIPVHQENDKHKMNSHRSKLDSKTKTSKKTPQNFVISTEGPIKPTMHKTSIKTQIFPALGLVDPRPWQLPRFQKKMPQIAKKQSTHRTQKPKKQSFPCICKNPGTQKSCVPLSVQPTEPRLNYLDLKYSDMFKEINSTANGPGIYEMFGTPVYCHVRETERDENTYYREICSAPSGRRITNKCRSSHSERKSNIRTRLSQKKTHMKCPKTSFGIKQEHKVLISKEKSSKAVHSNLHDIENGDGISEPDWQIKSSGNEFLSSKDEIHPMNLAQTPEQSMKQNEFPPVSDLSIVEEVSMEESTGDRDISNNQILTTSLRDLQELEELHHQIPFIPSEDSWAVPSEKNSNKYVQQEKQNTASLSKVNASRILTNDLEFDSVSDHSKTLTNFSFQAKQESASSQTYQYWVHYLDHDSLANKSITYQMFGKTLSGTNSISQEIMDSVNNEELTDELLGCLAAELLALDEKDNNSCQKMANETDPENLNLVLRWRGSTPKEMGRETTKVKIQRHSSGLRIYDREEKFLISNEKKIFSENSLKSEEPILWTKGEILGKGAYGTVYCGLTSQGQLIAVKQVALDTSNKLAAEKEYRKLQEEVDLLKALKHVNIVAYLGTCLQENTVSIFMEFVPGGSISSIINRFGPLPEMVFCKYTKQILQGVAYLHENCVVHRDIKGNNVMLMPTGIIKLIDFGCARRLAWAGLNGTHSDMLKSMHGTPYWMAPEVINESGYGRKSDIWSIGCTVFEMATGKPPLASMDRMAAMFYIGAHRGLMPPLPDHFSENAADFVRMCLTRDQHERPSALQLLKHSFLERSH
476 purified kinases (Homo sapiens, UniProt P37023), sequence (P37023 22-503): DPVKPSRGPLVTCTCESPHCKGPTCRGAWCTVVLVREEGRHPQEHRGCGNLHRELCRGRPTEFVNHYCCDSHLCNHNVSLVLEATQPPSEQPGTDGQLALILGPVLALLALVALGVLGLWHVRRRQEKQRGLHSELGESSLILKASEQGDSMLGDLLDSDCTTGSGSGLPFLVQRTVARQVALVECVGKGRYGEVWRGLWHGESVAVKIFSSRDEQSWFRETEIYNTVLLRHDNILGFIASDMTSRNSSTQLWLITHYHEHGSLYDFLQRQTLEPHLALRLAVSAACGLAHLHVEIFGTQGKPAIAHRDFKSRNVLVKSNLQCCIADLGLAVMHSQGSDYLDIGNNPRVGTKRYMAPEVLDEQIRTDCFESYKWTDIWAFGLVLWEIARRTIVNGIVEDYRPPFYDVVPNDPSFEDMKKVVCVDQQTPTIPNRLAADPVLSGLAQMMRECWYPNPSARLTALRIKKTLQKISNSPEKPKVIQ
476 purified kinases (Homo sapiens, UniProt Q00534), sequence (Q00534 whole entry): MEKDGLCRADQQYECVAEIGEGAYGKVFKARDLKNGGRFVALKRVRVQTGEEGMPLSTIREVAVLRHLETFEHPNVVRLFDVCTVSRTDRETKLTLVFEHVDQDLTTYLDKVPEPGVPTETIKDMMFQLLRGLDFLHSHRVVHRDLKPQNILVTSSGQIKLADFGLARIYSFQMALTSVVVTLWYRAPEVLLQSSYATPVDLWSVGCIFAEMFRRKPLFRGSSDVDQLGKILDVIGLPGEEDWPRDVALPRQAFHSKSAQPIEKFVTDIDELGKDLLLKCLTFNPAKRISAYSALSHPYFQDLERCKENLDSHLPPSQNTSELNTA

With Cc1nc(Nc2ncc(C(=O)Nc3c(C)cccc3Cl)s2)cc(N2CCN(CCO)CC2)n1 [Dasatinib] the “NUAK2 (LanthaScreen Binding)” value ([1]; 10 nM compound) was 7, the “NUAK2 (LanthaScreen Binding)” value ([1]; 10 nM compound + 10 µM FKBP12) was 0 and the “MAP2K6 (MKK6) (LanthaScreen Binding)” value ([2]; 10 nM compound) was -3. For the same compound, the “MAP2K6 (MKK6) (LanthaScreen Binding)” value ([2]; 10 nM compound + 10 µM FKBP12) was 8, the “MAP2K6 (MKK6) (kinase profiling)” value ([2]; 10 nM) was 9 and the “MAP2K6 (MKK6) (kinase profiling)” value ([2]; 10 nM + 10 µM FKBP12) was 8. The “PRKG2 (PKG2) (kinase profiling)” value ([3]; 10 nM) was 1, the “PRKG2 (PKG2) (kinase profiling)” value ([3]; 10 nM + 10 µM FKBP12) was -7 and the “PIP5K1A (Adapta)” value ([4]; 10 nM compound) was -11. For the same compound, the “PIP5K1A (Adapta)” value ([4]; 10 nM compound + 10 µM FKBP12) was -9, the “CDK17/cyclin Y (kinase profiling)” value ([5]; 10 nM) was 7 and the “CDK17/cyclin Y (kinase profiling)” value ([5]; 10 nM + 10 µM FKBP12) was 8. The “FYN (kinase profiling)” value ([6]; 10 nM) was 100, the “FYN (kinase profiling)” value ([6]; 10 nM + 10 µM FKBP12) was 101 and the “INSRR (IRR) (kinase profiling)” value ([7]; 10 nM) was 4. The “INSRR (IRR) (kinase profiling)” value ([7]; 10 nM + 10 µM FKBP12) was 21, the “MAP3K19 (YSK4) (kinase profiling)” value ([8]; 10 nM) was 3 and the “MAP3K19 (YSK4) (kinase profiling)” value ([8]; 10 nM + 10 µM FKBP12) was -1. For the same compound, the “RPS6KB1 (p70S6K) (kinase profiling)” value ([9]; 10 nM) was 5, the “RPS6KB1 (p70S6K) (kinase profiling)” value ([9]; 10 nM + 10 µM FKBP12) was 0 and the “NEK4 (kinase profiling)” value ([10]; 10 nM) was 4. For the same compound, the “NEK4 (kinase profiling)” value ([10]; 10 nM + 10 µM FKBP12) was 7, the “MLCK (MLCK2) (LanthaScreen Binding)” value ([11]; 10 nM compound) was -3 and the “MLCK (MLCK2) (LanthaScreen Binding)” value ([11]; 10 nM compound + 10 µM FKBP12) was 3. For the same compound, the “NIM1K (kinase profiling)” value ([12]; 10 nM) was 7, the “NIM1K (kinase profiling)” value ([12]; 10 nM + 10 µM FKBP12) was 17 and the “DYRK2 (LanthaScreen Binding)” value ([13]; 10 nM compound) was -6. For the same compound, the “DYRK2 (LanthaScreen Binding)” value ([13]; 10 nM compound + 10 µM FKBP12) was -4, the “TAOK1 (LanthaScreen Binding)” value ([14]; 10 nM compound) was -5 and the “TAOK1 (LanthaScreen Binding)” value ([14]; 10 nM compound + 10 µM FKBP12) was 1. The “HIPK1 (Myak) (kinase profiling)” value [15] was 1, the “HIPK2 (kinase profiling)” value ([16]; 10 nM) was 8 and the “HIPK2 (kinase profiling)” value ([16]; 10 nM + 10 µM FKBP12) was 11. For the same compound, the “STK17A (DRAK1) (LanthaScreen Binding)” value ([17]; 10 nM compound) was 3, the “STK17A (DRAK1) (LanthaScreen Binding)” value ([17]; 10 nM compound + 10 µM FKBP12) was 8 and the “ULK1 (LanthaScreen Binding)” value ([18]; 10 nM compound) was -2. For the same compound, the “ULK1 (LanthaScreen Binding)” value ([18]; 10 nM compound + 10 µM FKBP12) was 0, the “CDK6/cyclin D1 (kinase profiling)” value ([19]; 10 nM) was 11 and the “CDK6/cyclin D1 (kinase profiling)” value ([19]; 10 nM + 10 µM FKBP12) was -10. For the same compound, the “ACVRL1 (ALK1) (LanthaScreen Binding)” value ([20]; 10 nM compound) was 16, the “ACVRL1 (ALK1) (LanthaScreen Binding)” value ([20]; 10 nM compound + 10 µM FKBP12) was 0 and the “MAP2K4 (MEK4) (LanthaScreen Binding)” value ([21]; 10 nM compound) was -1. For the same compound, the “MAP2K4 (MEK4) (LanthaScreen Binding)” value ([21]; 10 nM compound + 10 µM FKBP12) was -2, the “NLK (LanthaScreen Binding)” value ([22]; 10 nM compound) was 6 and the “NLK (LanthaScreen Binding)” value ([22]; 10 nM compound + 10 µM FKBP12) was -1. The “TLK1 (LanthaScreen Binding)” value ([23]; 10 nM compound) was -1, the “TLK1 (LanthaScreen Binding)” value ([23]; 10 nM compound + 10 µM FKBP12) was 4 and the “CDK1/cyclin B (kinase profiling)” value ([24]; 10 nM) was 3. For the same compound, the “CDK1/cyclin B (kinase profiling)” value ([24]; 10 nM + 10 µM FKBP12) was 3, the “BMPR2 (LanthaScreen Binding)” value ([25]; 10 nM compound) was 0 and the “BMPR2 (LanthaScreen Binding)” value ([25]; 10 nM compound + 10 µM FKBP12) was 3. For the same compound, the “PKN2 (PRK2) (LanthaScreen Binding)” value ([26]; 10 nM compound) was 4, the “PKN2 (PRK2) (LanthaScreen Binding)” value ([26]; 10 nM compound + 10 µM FKBP12) was 5 and the “TNK1 (kinase profiling)” value ([27]; 10 nM) was 0. For the same compound, the “TNK1 (kinase profiling)” value ([27]; 10 nM + 10 µM FKBP12) was -2, the “MINK1 (kinase profiling)” value ([28]; 10 nM) was 10 and the “MINK1 (kinase profiling)” value ([28]; 10 nM + 10 µM FKBP12) was 10. For the same compound, the “DCAMKL2 (DCK2) (kinase profiling)” value ([29]; 10 nM) was 7, the “DCAMKL2 (DCK2) (kinase profiling)” value ([29]; 10 nM + 10 µM FKBP12) was 12 and the “MAP3K3 (MEKK3) (LanthaScreen Binding)” value ([30]; 10 nM compound) was 1. The “MAP3K3 (MEKK3) (LanthaScreen Binding)” value ([30]; 10 nM compound + 10 µM FKBP12) was 3, the “STK32B (YANK2) (LanthaScreen Binding)” value ([31]; 10 nM compound) was -5 and the “STK32B (YANK2) (LanthaScreen Binding)” value ([31]; 10 nM compound + 10 µM FKBP12) was -1. The “SGK (SGK1) (kinase profiling)” value ([32]; 10 nM) was 2 and the “SGK (SGK1) (kinase profiling)” value ([32]; 10 nM + 10 µM FKBP12) was 2.
